From publication PMC3478977, “Enabling structure-based drug design of Tyk2 through co-crystallization with a stabilizing aminoindazole inhibitor” (BMC Structural Biology, 2012)

Experiments:
[1] = target: T1, Jak2 (Homo sapiens, UniProt O60674); assay: trFRET kinase activity assay, Jak2; type: biochemical; conditions: 1 μM ATP, mean and standard error; read-out: IC50, inhibition of Jak2 enzyme activity
T1 construct: purchased Upstate/Millipore #14–640
Method: (§1) After 60 min incubation at room temperature, the reaction was quenched by addition of EDTA (final conc. 100 μM) and developed by addition of revelation reagents (final approximate concentrations: 30 mM HEPES pH 7.0, 0.06% BSA, 0.006% Tween-20, 0.24 M KF, 80 ng/mL PT66K (europium-labelled anti-phosphotyrosine antibody, cat #61T66KLB, Cisbio, Bedford, MA) and 3.12 μg/mL SAXL (Phycolink streptavidin-allophycocyanin acceptor, cat #PJ25S, Prozyme, San Leandro, CA)). The developed reaction was incubated in the dark either at 4°C overnight or at room temperature for ~1 h, then read with a time-resolved fluorescence detector (Rubystar, BMG Labtech) using a 337 nm laser for excitation and emission wavelengths of 620 nm and 665 nm. Within the linear range of the assay, this signal is directly related to phosphorylated product and was used to calculate IC50 values. Typically, seven-point inhibitor dilutions (5-fold; from 50 μM to 0.0032 μM) were used. IC50 values were calculated by fitting the following equation: […]
(§2) where [I] is total inhibitor concentration, Y is the percentage of activity (relative to that seen in no-inhibitor control) at a given inhibitor concentration, and Ymax is the maximum activity generated in the absence of inhibitor.
(§3) Purified Jak2 and Jak3 were purchased from Upstate/Millipore (cat numbers #14–640 and #14–629). […]

[2] = target: T2, Jak3 (Homo sapiens, UniProt P52333); assay: trFRET kinase activity assay, Jak3; type: biochemical; conditions: 1 μM ATP, mean and standard error; read-out: IC50, inhibition of Jak3 enzyme activity
T2 construct: purchased Upstate/Millipore #14–629
T2 sequence (P52333 1-1124): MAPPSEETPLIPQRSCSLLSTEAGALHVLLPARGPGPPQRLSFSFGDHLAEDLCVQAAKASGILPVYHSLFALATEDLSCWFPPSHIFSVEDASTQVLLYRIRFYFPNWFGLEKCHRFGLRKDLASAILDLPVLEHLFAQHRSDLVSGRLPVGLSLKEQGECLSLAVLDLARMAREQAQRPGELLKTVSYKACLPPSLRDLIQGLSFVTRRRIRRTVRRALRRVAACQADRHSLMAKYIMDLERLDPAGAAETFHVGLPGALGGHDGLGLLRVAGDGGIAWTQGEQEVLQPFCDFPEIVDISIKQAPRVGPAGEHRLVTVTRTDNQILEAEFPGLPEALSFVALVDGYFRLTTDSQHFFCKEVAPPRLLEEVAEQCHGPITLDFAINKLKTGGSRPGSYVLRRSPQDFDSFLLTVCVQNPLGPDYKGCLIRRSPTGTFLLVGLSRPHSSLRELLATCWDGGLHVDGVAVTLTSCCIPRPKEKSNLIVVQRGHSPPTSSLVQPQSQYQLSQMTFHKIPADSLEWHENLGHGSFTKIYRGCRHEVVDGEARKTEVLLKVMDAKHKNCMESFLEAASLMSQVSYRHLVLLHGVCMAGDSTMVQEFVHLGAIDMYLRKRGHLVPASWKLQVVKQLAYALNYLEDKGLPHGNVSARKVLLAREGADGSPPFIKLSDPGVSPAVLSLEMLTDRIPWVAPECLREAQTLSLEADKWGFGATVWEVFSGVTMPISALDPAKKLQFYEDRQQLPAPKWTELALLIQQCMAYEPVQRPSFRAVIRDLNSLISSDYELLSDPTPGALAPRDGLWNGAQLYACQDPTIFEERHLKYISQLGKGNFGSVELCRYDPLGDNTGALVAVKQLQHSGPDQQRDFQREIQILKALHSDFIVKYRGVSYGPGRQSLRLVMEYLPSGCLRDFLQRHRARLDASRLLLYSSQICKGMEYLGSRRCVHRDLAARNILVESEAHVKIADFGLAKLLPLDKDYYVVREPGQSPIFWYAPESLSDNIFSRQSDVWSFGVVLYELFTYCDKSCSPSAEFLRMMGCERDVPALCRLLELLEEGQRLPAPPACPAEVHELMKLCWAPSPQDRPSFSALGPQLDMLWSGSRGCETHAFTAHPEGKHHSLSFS
Method: as §1, §2, §3

[3] = target: T3, Jak1 (Homo sapiens, UniProt P23458); assay: trFRET kinase activity assay, Jak1; type: biochemical; conditions: Jak1 (845–1142) GST fusion, 1 μM ATP, mean and standard error; read-out: IC50, inhibition of Jak1 enzyme activity
T3 construct: Jak1 (residues 845–1142) was expressed in Sf9 cells; GST; made in house; host or cells: Sf9 insect cells
Method: as §1, §2, §3

[4] = target: T4, human Tyk2 (Homo sapiens, UniProt P29597); assay: trFRET kinase activity assay, Tyk2; type: biochemical; conditions: human Tyk2 (880–1185), 1 μM ATP, mean and standard error; read-out: IC50, inhibition of Tyk2 enzyme activity
T4 construct: human Tyk2 enzyme (residues 880–1185); expressed in Sf9 cells; His tag (cleavable); TEV site per construct name His-Tev-huTyk2 (880–1185)-Flag) (N); Flag (C); made in house; host or cells: Sf9 insect cells
T4 sequence (P29597 880-1185): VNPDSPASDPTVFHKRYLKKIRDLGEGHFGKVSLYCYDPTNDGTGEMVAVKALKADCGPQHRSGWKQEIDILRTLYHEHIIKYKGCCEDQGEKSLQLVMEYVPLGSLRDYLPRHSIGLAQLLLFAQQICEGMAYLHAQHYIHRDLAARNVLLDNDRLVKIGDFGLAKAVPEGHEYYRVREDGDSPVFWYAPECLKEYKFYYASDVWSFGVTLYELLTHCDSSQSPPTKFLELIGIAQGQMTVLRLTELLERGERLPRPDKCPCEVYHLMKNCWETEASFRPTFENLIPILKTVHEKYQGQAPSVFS
Method: as §1, §2

[5] = system: Mouse Tyk2 kinase domain (residues 870–1170; Asp1016Ala mutant); assay: Partial proteolysis of Tyk2 kinase domain by thermolysin with and without ligand; conditions: 30 μM compound, sum of ~27 and ~29 kDa peaks, 0 to 90 minutes, room temperature
Method: Mouse Tyk2 kinase domain (0.25 mg/mL, residues 870–1170; Asp1016Ala mutant) was incubated for 0 to 90 minutes with thermolysin (0.25 mg/mL) at room temperature in 50 mM HEPES pH 6.7, 150 mM NaCl, 5% glycerol, and 2.5 mM CaCl2 in the presence and absence of 30 μM Compound 2. EDTA (final conc 100 mM) was used as stop solution to quench the proteolysis reactions. Samples were separated by use of a Caliper LC90 system and the remaining substrate and product bands were quantitated. Intact (undigested) Tyk2 ran in this system at ~29 kDa. Addition of thermolysin yielded a partial digestion product of ~27 kDa (Additional file 1: Figure 1) within 5 minutes, which was unaffected by addition of Compound 2. Subsequent degradation products were strongly influenced by the presence of Compound 2 (Additional file 1: Figure S1). Therefore the sum of the intensities of the 29 and 27 kDa peaks was used as a measure of inhibitor-dependent resistance to thermolysin digestion. […]
In the absence of inhibitor, a 20 kDa fragment is generated after ~1-5 minutes and subsequently degraded. […] Quantitated values of Tyk2 peaks of ~27 and ~29 kDa during digestion with thermolysin, in the absence or presence of 30 μM Compound 2 were used to monitor overall degradation rates in Figure 2.

[6] = target: T5, thermolysin (Bacillus thermoproteolyticus, UniProt P00800); assay: Digestion of BSA control by thermolysin; type: biochemical; conditions: BSA control digested by thermolysin in the same buffer
T5 sequence (P00800 233-548): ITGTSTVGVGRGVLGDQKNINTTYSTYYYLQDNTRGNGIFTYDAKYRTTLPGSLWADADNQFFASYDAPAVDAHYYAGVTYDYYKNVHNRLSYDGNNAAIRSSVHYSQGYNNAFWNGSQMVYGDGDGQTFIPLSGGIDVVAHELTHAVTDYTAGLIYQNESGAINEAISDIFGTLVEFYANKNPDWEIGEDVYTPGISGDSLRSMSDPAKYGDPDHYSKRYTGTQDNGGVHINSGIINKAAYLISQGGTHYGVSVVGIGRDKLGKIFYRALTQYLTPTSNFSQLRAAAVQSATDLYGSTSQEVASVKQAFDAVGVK

T1 sequence (O60674 808-1132 limits assumed): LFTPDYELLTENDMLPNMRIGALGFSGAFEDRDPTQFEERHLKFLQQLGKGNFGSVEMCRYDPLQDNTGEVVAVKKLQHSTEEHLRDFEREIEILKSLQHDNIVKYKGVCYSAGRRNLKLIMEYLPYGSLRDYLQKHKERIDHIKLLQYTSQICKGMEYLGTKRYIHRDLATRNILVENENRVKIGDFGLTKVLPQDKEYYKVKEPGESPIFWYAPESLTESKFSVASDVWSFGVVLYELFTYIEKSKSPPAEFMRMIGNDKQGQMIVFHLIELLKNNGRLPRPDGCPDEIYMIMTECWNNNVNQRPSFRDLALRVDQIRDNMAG
T3 sequence (P23458 845-1142, species assumed): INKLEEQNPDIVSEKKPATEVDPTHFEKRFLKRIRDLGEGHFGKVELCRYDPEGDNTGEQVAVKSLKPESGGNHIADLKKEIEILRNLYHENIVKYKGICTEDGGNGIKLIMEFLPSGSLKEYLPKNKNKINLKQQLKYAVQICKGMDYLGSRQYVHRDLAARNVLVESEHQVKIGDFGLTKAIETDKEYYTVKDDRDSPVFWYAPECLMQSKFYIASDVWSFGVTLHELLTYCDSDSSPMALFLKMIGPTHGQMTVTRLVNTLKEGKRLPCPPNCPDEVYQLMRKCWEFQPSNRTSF

Compound	IC50 [1]	IC50 [2]	IC50 [3]	IC50 [4]	reduction of the rate of degradation of the enzyme to smaller forms (<27 kDa) by thermolysin [5]	inhibition of thermolysin protease activity (BSA digestion) [6]
Nc1n[nH]c2ccc(-c3ccc(NS(=O)(=O)c4cccc(Cl)c4)cc3)cc12 [Compound 1, N-[4-(3-Amino-1H-indazol-5-yl)-phenyl]-3-chloro-benzenesulfonamide]	7 ± 2 nM	42 ± 1 nM	5 ± 0.4 nM	–	–	–
O=C(Nc1n[nH]c2ccc(-c3ccc(NS(=O)(=O)c4cccc(Cl)c4)cc3)cc12)c1ccco1 [Compound 2, Furan-2-carboxylic acid {5-[4-(3-chloro-benzenesulfonylamino)-phenyl]-1 H-indazol-3-yl}amide]	4 ± 1 nM	41 ± 3 nM	10 ± 0.1 nM	< 3 nM	13 fold	not an inhibitor of thermolysin protease activity
